Measured values taken from PubChem BioAssay (NCI).
Where “and” joins values, the source holds several entries; their conditions need not be identical. Identical values can stand only once.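 Cultured in 96-well plates, cells were exposed to test compound for 48 hours across five concentrations. At the GI50, growth is halved. TGI is the concentration that stops growth completely.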

Legend:
Assay in all cases: NCI anticancer screen, dose series, 48 h
TK-10 renal = tested on: TK-10 renal
OVCAR-4 ovarian = tested on: OVCAR-4 ovarian
A549 NSCLC = tested on: A549 NSCLC
K-562 leukemia = tested on: K-562 leukemia
A498 renal = tested on: A498 renal
RXF 393 renal = tested on: RXF 393 renal
UO-31 renal = tested on: UO-31 renal
SK-MEL-2 melanoma = tested on: SK-MEL-2 melanoma
LOX IMVI melanoma = tested on: LOX IMVI melanoma
MDA-MB-231 breast = tested on: MDA-MB-231 breast

NC1=NN(c2ccccc2)C(=O)C1C(=O)C(=O)Nc1ccc(Cl)c(Cl)c1 (stereo not drawn)
TGI (TK-10 renal): > 100 µM | TGI (OVCAR-4 ovarian): > 100 µM | TGI (A549 NSCLC): > 100 µM | TGI (K-562 leukemia): > 100 µM | TGI (A498 renal): > 100 µM | TGI (RXF 393 renal): > 100 µM | TGI (UO-31 renal): > 100 µM | TGI (SK-MEL-2 melanoma): > 100 µM

Cc1cc(=O)n(-c2cc3cccccc-3n2)[nH]1
TGI (TK-10 renal): > 100 µM | TGI (A549 NSCLC): > 100 µM | TGI (K-562 leukemia): 15.5 µM | TGI (A498 renal): 46.9 µM | TGI (RXF 393 renal): 11.2 µM | TGI (UO-31 renal): 48.3 µM | TGI (LOX IMVI melanoma): > 100 µM

Cc1cccc(C)c1N1C(=O)C(=O)C(c2nc3ccccc3s2)/C(=N\N)C1=O (stereo not drawn)
TGI (TK-10 renal): > 100 µM | TGI (OVCAR-4 ovarian): > 100 µM | TGI (A549 NSCLC): > 100 µM | TGI (K-562 leukemia): > 100 µM | TGI (A498 renal): > 100 µM | TGI (UO-31 renal): > 100 µM | TGI (LOX IMVI melanoma): > 100 µM | TGI (SK-MEL-2 melanoma): > 100 µM

CCOc1ccccc1N=Nc1c(-c2ccccc2)nn(C(=O)CC(=O)Nc2cccc(C)c2)c1-c1ccccc1
TGI (TK-10 renal): > 100 µM | TGI (OVCAR-4 ovarian): > 100 µM | TGI (A549 NSCLC): > 100 µM | TGI (K-562 leukemia): > 100 µM | TGI (RXF 393 renal): > 100 µM | TGI (UO-31 renal): > 100 µM | TGI (LOX IMVI melanoma): > 100 µM | TGI (SK-MEL-2 melanoma): > 100 µM

O=C(Nc1ccc(Cl)cc1Cl)OC(Cn1cncn1)c1ccc(Cl)cc1Cl (stereo not drawn)
TGI (OVCAR-4 ovarian): 28 µM | TGI (A549 NSCLC): 33 µM | TGI (K-562 leukemia): > 100 µM | TGI (A498 renal): 34.2 µM | TGI (RXF 393 renal): 30.9 µM | TGI (UO-31 renal): 26 µM | TGI (LOX IMVI melanoma): 29.9 µM | TGI (SK-MEL-2 melanoma): 33.7 µM

COC(=O)C1=CC2C=CC(C1C(=O)OC)C1C(C(=O)OC)=C(C(=O)OC)C(C(=O)OC)=C(C(=O)OC)C21OC (stereo not drawn)
TGI (TK-10 renal): > 100 µM | TGI (OVCAR-4 ovarian): > 100 µM | TGI (A549 NSCLC): > 100 µM | TGI (A498 renal): > 100 µM | TGI (RXF 393 renal): > 100 µM | TGI (UO-31 renal): > 100 µM | TGI (LOX IMVI melanoma): > 100 µM | TGI (SK-MEL-2 melanoma): > 100 µM

COc1ccc(OC)c(/C=N/N=C(\N)NO)c1
TGI (TK-10 renal): 56 µM | TGI (OVCAR-4 ovarian): > 100 µM | TGI (A549 NSCLC): > 100 µM | TGI (K-562 leukemia): > 100 µM | TGI (RXF 393 renal): > 100 µM | TGI (UO-31 renal): 60.3 µM | TGI (LOX IMVI melanoma): > 100 µM | TGI (SK-MEL-2 melanoma): > 100 µM

CC(C)COc1nc2c(c(=O)n(C)c(=O)n2C)n1C
GI50 (OVCAR-4 ovarian): > 100 µM | TGI (OVCAR-4 ovarian): > 100 µM | GI50 (A549 NSCLC): > 100 µM | TGI (A549 NSCLC): > 100 µM | GI50 (K-562 leukemia): > 100 µM | TGI (K-562 leukemia): > 100 µM | GI50 (A498 renal): > 100 µM | TGI (A498 renal): > 100 µM | GI50 (RXF 393 renal): > 100 µM | TGI (RXF 393 renal): > 100 µM | GI50 (UO-31 renal): > 100 µM | TGI (UO-31 renal): > 100 µM | GI50 (MDA-MB-231 breast): > 100 µM | TGI (MDA-MB-231 breast): > 100 µM | GI50 (LOX IMVI melanoma): > 100 µM | TGI (LOX IMVI melanoma): > 100 µM

CN(/N=C\c1ccnc2ccccc12)c1ccc([N+](=O)[O-])cc1
TGI (TK-10 renal): > 100 µM | TGI (A549 NSCLC): > 100 µM | TGI (K-562 leukemia): > 100 µM | TGI (A498 renal): > 100 µM | TGI (LOX IMVI melanoma): > 100 µM | TGI (SK-MEL-2 melanoma): > 100 µM

O=C(c1ccc(Cl)cc1)C(O)c1ccc(Cl)cc1 (stereo not drawn)
TGI (TK-10 renal): > 100 µM | TGI (OVCAR-4 ovarian): > 100 µM | TGI (A549 NSCLC): > 100 µM | TGI (K-562 leukemia): > 100 µM | TGI (RXF 393 renal): > 100 µM | TGI (UO-31 renal): > 100 µM | TGI (MDA-MB-231 breast): > 100 µM | TGI (LOX IMVI melanoma): > 100 µM | TGI (SK-MEL-2 melanoma): > 100 µM

COC(=O)C1C(=O)O[C@@H](c2cc(OC)c(OC)cc2OC)C1C(=O)OC (mixture of isomers)
TGI (TK-10 renal): > 100 µM | TGI (OVCAR-4 ovarian): > 100 µM | TGI (A549 NSCLC): > 100 µM | TGI (K-562 leukemia): > 100 µM | TGI (A498 renal): > 100 µM | TGI (RXF 393 renal): > 100 µM | TGI (UO-31 renal): > 100 µM | TGI (LOX IMVI melanoma): > 100 µM

COC1(OC)C2(Cl)C(Cl)=C(Cl)C1(Cl)C1C2C2CC1(C(=O)O)c1ccccc12 (stereo not drawn)
TGI (TK-10 renal): 70 µM | TGI (OVCAR-4 ovarian): 34.6 µM | TGI (A549 NSCLC): > 100 µM | TGI (K-562 leukemia): 43.2 µM | TGI (A498 renal): > 100 µM | TGI (UO-31 renal): 44.7 µM | TGI (LOX IMVI melanoma): 32 µM

COC(=O)[C@@H]1Cc2c([nH]c3ccccc23)[C@H](c2ccccc2)N1
TGI (TK-10 renal): > 100 µM | TGI (OVCAR-4 ovarian): > 100 µM | TGI (A549 NSCLC): > 100 µM | TGI (K-562 leukemia): > 100 µM | TGI (A498 renal): 48.6 µM | TGI (UO-31 renal): 73.9 µM | TGI (LOX IMVI melanoma): > 100 µM | TGI (SK-MEL-2 melanoma): 82.8 µM

CNS(=O)(=O)NNS(=O)(=O)c1ccc(OC)cc1
TGI (OVCAR-4 ovarian): > 100 µM | TGI (A549 NSCLC): > 100 µM | TGI (K-562 leukemia): > 100 µM | TGI (A498 renal): > 100 µM | TGI (RXF 393 renal): > 100 µM | TGI (UO-31 renal): > 100 µM | TGI (LOX IMVI melanoma): > 100 µM | TGI (SK-MEL-2 melanoma): > 100 µM

Cc1cc(C)c(-c2noc(-c3ccc(Cl)cc3)c2C2=NCCCN2)c(C)c1
TGI (OVCAR-4 ovarian): > 100 µM | TGI (A549 NSCLC): > 100 µM | TGI (K-562 leukemia): 37.7 µM | TGI (RXF 393 renal): 48.5 µM | TGI (UO-31 renal): > 100 µM | TGI (LOX IMVI melanoma): 37.1 µM | TGI (SK-MEL-2 melanoma): 49.9 µM

COc1c(-c2ccccc2)nc2ccc(Oc3ccccc3)nn12
TGI (TK-10 renal): > 100 µM | TGI (OVCAR-4 ovarian): > 71.3 µM | TGI (A549 NSCLC): > 100 µM | TGI (K-562 leukemia): > 100 µM | TGI (A498 renal): > 66.5 µM | TGI (RXF 393 renal): > 73.6 µM | TGI (UO-31 renal): > 100 µM | TGI (LOX IMVI melanoma): > 100 µM | TGI (SK-MEL-2 melanoma): > 94.4 µM

COc1cccc(Nc2nc3ccccc3c3occc23)c1
GI50 (TK-10 renal): 5.79 µM | TGI (TK-10 renal): 17.2 µM | GI50 (OVCAR-4 ovarian): 11.2 µM | TGI (OVCAR-4 ovarian): 29.8 µM | GI50 (A549 NSCLC): 6.01 µM | TGI (A549 NSCLC): 22.4 µM | GI50 (K-562 leukemia): 6.27 µM | TGI (K-562 leukemia): > 100 µM | GI50 (RXF 393 renal): 4.46 µM | TGI (RXF 393 renal): 19.8 µM | GI50 (UO-31 renal): 6.98 µM | TGI (UO-31 renal): 27.6 µM | GI50 (MDA-MB-231 breast): 8.53 µM | TGI (MDA-MB-231 breast): 31.6 µM | GI50 (LOX IMVI melanoma): 2.32 µM | TGI (LOX IMVI melanoma): 8.39 µM | GI50 (SK-MEL-2 melanoma): 13 µM | TGI (SK-MEL-2 melanoma): 30.6 µM

COC1OC2COC(C)(C)OC2C(OC(C)=O)C1NC(=O)N(CCCl)N=O (stereo not drawn)
TGI (TK-10 renal): > 100 µM | TGI (OVCAR-4 ovarian): > 100 µM | TGI (A549 NSCLC): > 100 µM | TGI (K-562 leukemia): > 100 µM | TGI (A498 renal): > 100 µM | TGI (RXF 393 renal): > 100 µM | TGI (LOX IMVI melanoma): > 100 µM | TGI (SK-MEL-2 melanoma): > 100 µM

O=[N+]([O-])c1cc([N+](=O)[O-])c(Nn2c3ccccc3c3ccccc32)c([N+](=O)[O-])c1
GI50 (TK-10 renal): 0.315 µM | TGI (TK-10 renal): 11 µM and > 100 µM | GI50 (OVCAR-4 ovarian): 0.342 µM | TGI (OVCAR-4 ovarian): > 100 µM | GI50 (A549 NSCLC): 0.334 µM | TGI (A549 NSCLC): 14.3 µM and > 100 µM | GI50 (K-562 leukemia): 0.297 µM | TGI (K-562 leukemia): > 100 µM | GI50 (A498 renal): 0.228 µM | TGI (A498 renal): 0.624 µM | GI50 (RXF 393 renal): 0.272 µM | TGI (RXF 393 renal): 1.24 µM | GI50 (UO-31 renal): 0.245 µM | TGI (UO-31 renal): 6.63 µM and 0.916 µM | GI50 (LOX IMVI melanoma): 0.339 µM | TGI (LOX IMVI melanoma): 11.7 µM | GI50 (SK-MEL-2 melanoma): 0.267 µM | TGI (SK-MEL-2 melanoma): 0.702 µM

Cc1nc2c(o1)C(=Nc1ccccc1)c1nc(C)oc1C2=Nc1ccccc1
TGI (TK-10 renal): > 100 µM | TGI (A549 NSCLC): 54.1 µM | TGI (K-562 leukemia): > 100 µM | TGI (A498 renal): 3.01 µM | TGI (RXF 393 renal): 37.5 µM | TGI (UO-31 renal): 35.1 µM | TGI (LOX IMVI melanoma): 60.4 µM | TGI (SK-MEL-2 melanoma): 72.6 µM

Cc1cc2c(-c3nc4ccccn4c3N)c(O)c(O)cc2c(O)c1-c1c(C)cc2c(-c3nc4ccccn4c3N)c(O)c(O)cc2c1O
GI50 (TK-10 renal): 1.51 µM | TGI (TK-10 renal): > 25 µM | GI50 (OVCAR-4 ovarian): 4.85 µM | TGI (OVCAR-4 ovarian): > 25 µM | GI50 (A549 NSCLC): 0.688 µM | TGI (A549 NSCLC): > 25 µM | GI50 (K-562 leukemia): 1.02 µM | TGI (K-562 leukemia): > 25 µM | GI50 (RXF 393 renal): 0.682 µM | TGI (RXF 393 renal): 18 µM | GI50 (UO-31 renal): 1.12 µM | TGI (UO-31 renal): > 25 µM | GI50 (MDA-MB-231 breast): 3.11 µM | TGI (MDA-MB-231 breast): > 25 µM | GI50 (LOX IMVI melanoma): 0.582 µM | TGI (LOX IMVI melanoma): > 25 µM | GI50 (SK-MEL-2 melanoma): 0.961 µM | TGI (SK-MEL-2 melanoma): 23.4 µM
